Assay results taken from ChEMBL document CHEMBL4354801, “Design, Synthesis, and Structure-Activity Relationships of 1,2,3-Triazole Benzenesulfonamides as New Selective Leucine-Zipper and Sterile-α Motif Kinase (ZAK) Inhibitors” (J Med Chem, 2020).
Values belong to the compound of their own block, whether it stands above or below them.

How the values were obtained:
[1] = biological target: Serine/threonine-protein kinase B-raf (Homo sapiens, UniProt P15056, V600E); experiment: Inhibition of recombinant human B-RAF V600E mutant using Ser/Thr3 as substrate after 1 hr by FRET-based Z'-Lyte assay
[2] = biological target: T1, Mitogen-activated protein kinase kinase kinase 20 (Homo sapiens, UniProt Q9NYL2); experiment: Inhibition of N-terminal GST-tagged recombinant human full-length ZAK expressed in baculovirus infected Sf9 insect cells using MBP as substrate after 30 mins by ADP-Glo assay
Rattus norvegicus [3] = experiment: Anti-hypertrophic cardiomyopathy activity in SHR rat assessed as whole heart weight level elevation at 2.5 mg/kg, po once daily for 8 weeks (reference value: 1.23 +/- 0.006 g); assay type: functional
LIM domain kinase 2 = LIM domain kinase 2 (Homo sapiens, UniProt P53671); experiment: Binding affinity to human LIMK2
Rattus norvegicus [4] = experiment: Anti-hypertrophic cardiomyopathy activity in SHR rat assessed as whole heart weight level elevation at 10 mg/kg, po once daily for 8 weeks (reference value: 1.23 +/- 0.006 g); assay type: functional
[5] = Effect on ZAKalpha protein expression in rat H9C2 cells by Western blot analysis
Rattus norvegicus [6] = experiment: Anti-hypertrophic cardiomyopathy activity in SHR rat assessed as left ventricular weight level elevation at 2.5 mg/kg, po once daily for 8 weeks (reference value: 0.89 +/- 0.005 g); assay type: functional
[7] = biological target: T2, Tyrosine-protein kinase ABL1 (Homo sapiens, UniProt P00519); experiment: Binding affinity to human ABL1
[8] = biological target: Tyrosine-protein kinase Blk (Homo sapiens, UniProt P51451); experiment: Binding affinity to human BLK
Rattus norvegicus [9] = experiment: Anti-hypertrophic cardiomyopathy activity in SHR rat assessed as left ventricular weight level elevation at 10 mg/kg, po once daily for 8 weeks (reference value: 0.89 +/- 0.005 g); assay type: functional
[10] = biological target: T1, Mitogen-activated protein kinase kinase kinase 20; experiment: Binding affinity to ATP-binding site of human ZAK expressed in Escherichia coli by active site-dependent competition binding assay
LIM domain kinase 1 = LIM domain kinase 1 (Homo sapiens, UniProt P53667); experiment: Binding affinity to human LIMK1
[11] = biological target: Receptor-interacting serine/threonine-protein kinase 2 (Homo sapiens, UniProt O43353); experiment: Binding affinity to human RIPK2
[12] = biological target: Tyrosine-protein kinase Lck (Homo sapiens, UniProt P06239); experiment: Binding affinity to human LCK
[13] = Clearance in Sprague-Dawley rat at 2.5 mg/kg, iv by HPLC/MS analysis; assay type: ADME, organism-based; settings: in vivo
[14] = biological target: T1, Mitogen-activated protein kinase kinase kinase 20; experiment: Binding affinity to human ZAK
[15] = biological target: Receptor-type tyrosine-protein kinase FLT3 (Homo sapiens, UniProt P36888, F691L); experiment: Binding affinity to human FLT3 F691L mutant
[16] = Cmax in Sprague-Dawley rat at 2.5 mg/kg, iv by HPLC/MS analysis; assay type: ADME, organism-based; parameters: dose 2.5 mg/kg, route intravenous; settings: in vivo
[17] = biological target: T2, Tyrosine-protein kinase ABL1; experiment: Inhibition of human ABL1
[18] = Cmax in Sprague-Dawley rat at 10 mg/kg, po by HPLC/MS analysis; assay type: ADME, organism-based; parameters: dose 10 mg/kg, route oral; settings: in vivo
[19] = AUC (0 to infinity) in Sprague-Dawley rat at 2.5 mg/kg, iv by HPLC/MS analysis; assay type: ADME, organism-based; parameters: dose 2.5 mg/kg, route intravenous, time infinity; settings: in vivo
[20] = AUC (0 to t) in Sprague-Dawley rat at 10 mg/kg, po by HPLC/MS analysis; assay type: ADME, organism-based; settings: in vivo
[21] = Half life in Sprague-Dawley rat at 10 mg/kg, po by HPLC/MS analysis; assay type: ADME, organism-based; settings: in vivo
[22] = Oral bioavailability in Sprague-Dawley rat at 10 mg/kg by HPLC/MS analysis; assay type: ADME, organism-based; settings: in vivo
[23] = Half life in Sprague-Dawley rat at 2.5 mg/kg, iv by HPLC/MS analysis; assay type: ADME, organism-based; settings: in vivo
[24] = AUC (0 to t) in Sprague-Dawley rat at 2.5 mg/kg, iv by HPLC/MS analysis; assay type: ADME, organism-based; settings: in vivo
[25] = AUC (0 to infinity) in Sprague-Dawley rat at 10 mg/kg, po by HPLC/MS analysis; assay type: ADME, organism-based; parameters: dose 10 mg/kg, route oral, time infinity; settings: in vivo

Chain of Serine/threonine-protein kinase B-raf (P15056 2-766 V600E limits assumed): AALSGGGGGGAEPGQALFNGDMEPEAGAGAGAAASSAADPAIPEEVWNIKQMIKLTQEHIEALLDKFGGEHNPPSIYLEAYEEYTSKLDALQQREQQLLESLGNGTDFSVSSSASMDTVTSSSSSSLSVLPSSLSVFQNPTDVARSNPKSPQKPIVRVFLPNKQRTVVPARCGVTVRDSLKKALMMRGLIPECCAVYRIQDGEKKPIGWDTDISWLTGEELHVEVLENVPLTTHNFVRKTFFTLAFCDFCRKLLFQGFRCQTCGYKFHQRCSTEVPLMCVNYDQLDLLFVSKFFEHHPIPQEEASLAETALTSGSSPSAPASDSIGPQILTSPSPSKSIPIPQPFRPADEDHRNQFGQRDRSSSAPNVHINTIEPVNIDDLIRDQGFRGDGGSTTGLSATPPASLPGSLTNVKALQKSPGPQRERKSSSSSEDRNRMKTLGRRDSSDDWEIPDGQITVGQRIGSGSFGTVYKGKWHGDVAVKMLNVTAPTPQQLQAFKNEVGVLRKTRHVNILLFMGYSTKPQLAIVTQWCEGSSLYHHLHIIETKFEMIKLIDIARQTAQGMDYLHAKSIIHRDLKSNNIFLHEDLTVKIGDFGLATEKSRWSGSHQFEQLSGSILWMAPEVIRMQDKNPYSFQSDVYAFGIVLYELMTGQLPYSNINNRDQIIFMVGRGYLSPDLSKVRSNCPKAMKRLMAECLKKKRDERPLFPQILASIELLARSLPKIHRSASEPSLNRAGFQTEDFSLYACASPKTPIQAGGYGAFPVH
T1 sequence (Q9NYL2 whole entry): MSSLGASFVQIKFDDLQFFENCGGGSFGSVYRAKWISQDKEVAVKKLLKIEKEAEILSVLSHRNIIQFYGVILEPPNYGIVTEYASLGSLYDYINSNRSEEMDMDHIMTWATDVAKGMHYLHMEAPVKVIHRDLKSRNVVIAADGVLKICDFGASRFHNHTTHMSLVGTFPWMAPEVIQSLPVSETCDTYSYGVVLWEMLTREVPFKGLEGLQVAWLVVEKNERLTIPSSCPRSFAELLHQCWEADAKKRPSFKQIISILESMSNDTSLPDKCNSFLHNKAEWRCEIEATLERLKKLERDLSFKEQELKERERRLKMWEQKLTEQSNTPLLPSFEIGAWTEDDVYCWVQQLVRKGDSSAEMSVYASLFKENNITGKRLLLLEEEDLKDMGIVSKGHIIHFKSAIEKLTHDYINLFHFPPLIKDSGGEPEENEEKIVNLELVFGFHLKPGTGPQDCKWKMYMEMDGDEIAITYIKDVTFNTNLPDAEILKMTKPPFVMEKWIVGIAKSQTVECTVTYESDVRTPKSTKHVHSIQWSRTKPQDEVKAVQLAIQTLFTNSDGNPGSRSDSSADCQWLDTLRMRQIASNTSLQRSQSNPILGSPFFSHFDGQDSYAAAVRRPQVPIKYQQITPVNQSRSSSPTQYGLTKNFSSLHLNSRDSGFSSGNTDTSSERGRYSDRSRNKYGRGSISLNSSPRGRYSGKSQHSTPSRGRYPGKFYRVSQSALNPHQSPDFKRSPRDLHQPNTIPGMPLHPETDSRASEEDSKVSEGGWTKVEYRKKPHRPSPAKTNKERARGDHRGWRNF
T2 sequence (P00519 whole entry): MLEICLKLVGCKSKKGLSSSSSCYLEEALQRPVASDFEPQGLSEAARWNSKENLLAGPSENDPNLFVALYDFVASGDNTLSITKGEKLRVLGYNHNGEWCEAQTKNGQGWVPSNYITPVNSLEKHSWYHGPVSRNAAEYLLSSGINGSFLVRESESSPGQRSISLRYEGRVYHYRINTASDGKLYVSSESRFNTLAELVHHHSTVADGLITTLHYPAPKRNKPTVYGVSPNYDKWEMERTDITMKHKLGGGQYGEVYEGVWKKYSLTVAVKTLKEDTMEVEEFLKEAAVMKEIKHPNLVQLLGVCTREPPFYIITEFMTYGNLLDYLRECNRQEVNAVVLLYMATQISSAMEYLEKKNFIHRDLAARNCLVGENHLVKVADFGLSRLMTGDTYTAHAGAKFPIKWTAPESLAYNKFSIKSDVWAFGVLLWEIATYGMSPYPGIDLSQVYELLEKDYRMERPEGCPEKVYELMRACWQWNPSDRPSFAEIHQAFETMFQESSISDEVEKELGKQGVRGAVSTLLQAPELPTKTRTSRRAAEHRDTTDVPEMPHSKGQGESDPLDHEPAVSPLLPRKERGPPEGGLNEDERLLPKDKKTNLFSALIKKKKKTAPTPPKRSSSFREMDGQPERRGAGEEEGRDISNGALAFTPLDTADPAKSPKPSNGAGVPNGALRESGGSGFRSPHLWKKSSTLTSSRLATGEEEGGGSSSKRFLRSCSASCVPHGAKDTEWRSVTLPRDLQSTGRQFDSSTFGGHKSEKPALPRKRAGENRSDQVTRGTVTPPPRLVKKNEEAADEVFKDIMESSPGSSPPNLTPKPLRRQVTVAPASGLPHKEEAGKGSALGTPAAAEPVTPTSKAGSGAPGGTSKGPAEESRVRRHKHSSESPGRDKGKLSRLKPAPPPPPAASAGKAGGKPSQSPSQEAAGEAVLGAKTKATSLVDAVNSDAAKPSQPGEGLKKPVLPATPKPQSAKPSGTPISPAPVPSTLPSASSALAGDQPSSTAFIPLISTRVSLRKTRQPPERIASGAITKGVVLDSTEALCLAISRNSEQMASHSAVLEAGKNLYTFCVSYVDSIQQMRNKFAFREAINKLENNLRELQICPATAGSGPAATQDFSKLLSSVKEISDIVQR
Chain of LIM domain kinase 1 (P53667 whole entry, the tested form may be a part): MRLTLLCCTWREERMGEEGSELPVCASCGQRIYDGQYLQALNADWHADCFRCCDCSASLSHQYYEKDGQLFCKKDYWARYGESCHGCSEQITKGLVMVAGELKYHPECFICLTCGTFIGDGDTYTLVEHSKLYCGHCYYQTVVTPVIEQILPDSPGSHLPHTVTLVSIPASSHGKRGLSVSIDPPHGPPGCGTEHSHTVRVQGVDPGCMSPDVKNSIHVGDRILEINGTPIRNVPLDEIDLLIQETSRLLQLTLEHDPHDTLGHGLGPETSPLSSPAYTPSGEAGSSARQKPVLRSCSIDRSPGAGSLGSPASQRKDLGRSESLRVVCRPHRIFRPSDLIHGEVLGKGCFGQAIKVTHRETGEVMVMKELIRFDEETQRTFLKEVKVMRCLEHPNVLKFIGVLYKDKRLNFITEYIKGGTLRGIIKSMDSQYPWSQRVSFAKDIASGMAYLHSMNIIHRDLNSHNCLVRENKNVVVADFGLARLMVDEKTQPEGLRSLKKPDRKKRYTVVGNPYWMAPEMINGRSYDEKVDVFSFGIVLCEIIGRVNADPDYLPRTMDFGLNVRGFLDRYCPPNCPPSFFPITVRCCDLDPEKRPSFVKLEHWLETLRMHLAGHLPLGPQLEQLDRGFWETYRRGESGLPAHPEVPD
Chain of Tyrosine-protein kinase Lck (P06239 whole entry): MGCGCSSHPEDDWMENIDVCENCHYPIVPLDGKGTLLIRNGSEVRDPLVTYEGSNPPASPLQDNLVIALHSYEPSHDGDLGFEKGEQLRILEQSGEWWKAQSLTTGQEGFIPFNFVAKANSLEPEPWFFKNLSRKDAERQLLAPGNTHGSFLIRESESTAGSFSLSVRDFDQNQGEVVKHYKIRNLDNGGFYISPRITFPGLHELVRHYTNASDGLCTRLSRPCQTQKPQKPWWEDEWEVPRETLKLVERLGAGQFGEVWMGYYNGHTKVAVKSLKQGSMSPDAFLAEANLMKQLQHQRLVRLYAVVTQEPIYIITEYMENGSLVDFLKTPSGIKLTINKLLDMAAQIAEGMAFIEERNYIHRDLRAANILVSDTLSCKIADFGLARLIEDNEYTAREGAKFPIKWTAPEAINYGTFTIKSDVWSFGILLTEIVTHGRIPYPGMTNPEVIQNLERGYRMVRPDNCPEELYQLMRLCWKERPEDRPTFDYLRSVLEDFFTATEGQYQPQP
Chain of Receptor-interacting serine/threonine-protein kinase 2 (O43353 whole entry): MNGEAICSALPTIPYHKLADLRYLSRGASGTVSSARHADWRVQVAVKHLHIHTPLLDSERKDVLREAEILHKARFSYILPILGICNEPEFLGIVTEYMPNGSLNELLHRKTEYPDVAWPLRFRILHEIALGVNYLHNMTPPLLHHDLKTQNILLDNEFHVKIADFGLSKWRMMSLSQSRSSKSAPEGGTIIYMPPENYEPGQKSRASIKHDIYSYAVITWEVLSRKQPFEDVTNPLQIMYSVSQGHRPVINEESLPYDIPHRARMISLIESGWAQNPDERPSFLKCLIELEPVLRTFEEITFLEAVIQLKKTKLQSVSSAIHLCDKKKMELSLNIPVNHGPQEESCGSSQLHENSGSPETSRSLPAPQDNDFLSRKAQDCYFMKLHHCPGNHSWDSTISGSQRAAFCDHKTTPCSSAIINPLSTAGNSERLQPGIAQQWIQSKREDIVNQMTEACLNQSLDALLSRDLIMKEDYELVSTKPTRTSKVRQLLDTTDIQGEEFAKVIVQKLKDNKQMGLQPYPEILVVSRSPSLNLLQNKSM
Chain of LIM domain kinase 2 (P53671 whole entry, the tested form may be a part): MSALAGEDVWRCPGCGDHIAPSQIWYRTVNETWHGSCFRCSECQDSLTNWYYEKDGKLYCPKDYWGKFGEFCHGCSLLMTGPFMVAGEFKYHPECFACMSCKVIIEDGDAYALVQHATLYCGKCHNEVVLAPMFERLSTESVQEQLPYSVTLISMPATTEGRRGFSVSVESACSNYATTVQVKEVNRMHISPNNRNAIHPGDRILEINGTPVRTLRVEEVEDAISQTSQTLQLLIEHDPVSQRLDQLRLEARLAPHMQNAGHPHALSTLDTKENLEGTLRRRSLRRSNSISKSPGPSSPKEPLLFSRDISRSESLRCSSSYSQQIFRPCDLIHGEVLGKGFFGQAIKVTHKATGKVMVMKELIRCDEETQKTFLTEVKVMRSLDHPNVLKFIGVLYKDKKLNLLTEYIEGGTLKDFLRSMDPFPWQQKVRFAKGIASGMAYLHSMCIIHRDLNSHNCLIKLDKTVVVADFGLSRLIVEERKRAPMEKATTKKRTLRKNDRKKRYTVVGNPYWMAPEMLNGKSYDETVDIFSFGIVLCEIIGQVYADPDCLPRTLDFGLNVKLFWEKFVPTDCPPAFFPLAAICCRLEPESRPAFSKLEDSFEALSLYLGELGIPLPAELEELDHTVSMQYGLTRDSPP

Structure (SMILES): COc1n[nH]c2ncc(C#Cc3c(F)ccc(NS(=O)(=O)c4cccc(Cl)c4)c3F)cc12
IC50 [1]: > 1000 nM
IC50 [2]: 14.7 nM

Structure (SMILES): COc1n[nH]c2ncc(-c3cn(-c4c(F)ccc(NS(=O)(=O)c5ccc6ccccc6c5)c4F)nn3)cc12
IC50 [1]: 856 nM
IC50 [2]: 4.5 nM

Structure (SMILES): COc1n[nH]c2ncc(-c3cn(-c4c(F)ccc(NS(=O)(=O)c5cccc(-c6ccccc6)c5)c4F)nn3)cc12
IC50 [1]: > 1000 nM
Activity (Rattus norvegicus [3]): 1.18 g
Kd (LIM domain kinase 2): 63 nM
Activity (Rattus norvegicus [4]): 1.13 g
Activity [5]: Non-Toxic
Activity (Rattus norvegicus [6]): 0.82 g
Kd [7]: 15 nM
Kd [8]: 190 nM
IC50 [2]: 4 nM
Activity (Rattus norvegicus [9]): 0.78 g
Kd [10]: 8 nM
Kd (LIM domain kinase 1): 23 nM
Kd [11]: 57 nM
Kd [12]: 160 nM
clearance [13]: 1.53 mL/min/kg
Kd [14]: 8 nM
Kd [15]: 530 nM
Cmax [16]: 34200 ng/mL
IC50 [17]: 156 nM
Cmax [18]: 16400 ng/mL
AUC(0-inf) [19]: 27900 ng·h/mL
AUC(0-t) [20]: 71600 ng·h/mL
half-life [21]: 1.7 h
bioavailability [22]: 65.3%
half-life [23]: 1.6 h
AUC(0-t) [24]: 27400 ng·h/mL
AUC(0-inf) [25]: 71800 ng·h/mL

Structure (SMILES): COc1n[nH]c2ncc(-c3nnc(-c4c(F)ccc(NS(=O)(=O)c5cccc(Cl)c5)c4F)o3)cc12
IC50 [1]: > 1000 nM
IC50 [2]: 63.3 nM

Structure (SMILES): Nc1ccc(-c2cn(-c3c(F)ccc(NS(=O)(=O)c4cccc(Cl)c4)c3F)nn2)cn1
IC50 [1]: > 1000 nM
IC50 [2]: 46.2 nM

Structure (SMILES): COc1n[nH]c2ncc(-c3ncc(-c4c(F)ccc(NS(=O)(=O)c5cccc(Cl)c5)c4F)[nH]3)cc12
IC50 [1]: > 1000 nM
IC50 [2]: 983 nM

Structure (SMILES): COc1n[nH]c2ncc(-c3nc(-c4c(F)ccc(NS(=O)(=O)c5cccc(Cl)c5)c4F)no3)cc12
IC50 [1]: > 1000 nM
IC50 [2]: 29 nM

Structure (SMILES): COc1n[nH]c2ncc(-c3cn(-c4cccc(NS(=O)(=O)c5cccc(Cl)c5)c4)nn3)cc12
IC50 [1]: > 1000 nM
IC50 [2]: 24.7 nM

Structure (SMILES): Nc1ncc(-c2cn(-c3c(F)ccc(NS(=O)(=O)c4cccc(Cl)c4)c3F)nn2)cn1
IC50 [1]: > 1000 nM
IC50 [2]: 8.9 nM

The next compounds have a lower IC50 [1] than those just listed; values first:

IC50 [1]: 83.1 nM
IC50 [2]: 85.7 nM
Structure (SMILES): COc1n[nH]c2ncc(-c3cn(-c4c(F)ccc(NC(=O)Cc5cccc(Cl)c5)c4F)nn3)cc12

IC50 [1]: 39 nM
IC50 [2]: 3.8 nM
Structure (SMILES): COc1n[nH]c2ncc(-c3cn(-c4c(F)ccc(NS(=O)(=O)c5ccccc5)c4F)nn3)cc12

IC50 [1]: 190 nM
IC50 [2]: 6.9 nM
Structure (SMILES): COc1n[nH]c2ncc(-c3cn(-c4c(F)ccc(NS(=O)(=O)c5cccc(C(C)C)c5)c4F)nn3)cc12

IC50 [1]: 453 nM
IC50 [2]: 4.4 nM
Structure (SMILES): COc1n[nH]c2ncc(-c3cn(-c4c(F)ccc(NS(=O)(=O)c5cccc(C)c5)c4F)nn3)cc12

IC50 [1]: 334 nM
IC50 [2]: 5.7 nM
Structure (SMILES): COc1n[nH]c2ncc(-c3cn(-c4cc(NS(=O)(=O)c5cccc(Cl)c5)ccc4F)nn3)cc12

IC50 [1]: 126 nM
IC50 [2]: 4.2 nM
Structure (SMILES): COc1n[nH]c2ncc(-c3cn(-c4c(F)ccc(NS(=O)(=O)c5cccc6ccccc56)c4F)nn3)cc12

IC50 [1]: 11.4 nM
IC50 [2]: 54.3 nM
Structure (SMILES): COc1n[nH]c2ncc(-c3cn(-c4c(F)ccc(NC(=O)c5cccc(Cl)c5)c4F)nn3)cc12

IC50 [1]: 198 nM
IC50 [2]: 1.9 nM
Structure (SMILES): COc1n[nH]c2ncc(-c3cn(-c4c(F)ccc(NS(=O)(=O)c5cccc(Cl)c5)c4F)nn3)cc12

IC50 [1]: 272 nM
IC50 [2]: 2.3 nM
Structure (SMILES): COc1cccc(S(=O)(=O)Nc2ccc(F)c(-n3cc(-c4cnc5[nH]nc(OC)c5c4)nn3)c2F)c1

IC50 [1]: 51.6 nM
IC50 [2]: 53 nM
Structure (SMILES): COc1n[nH]c2ncc(-c3cn(-c4c(F)ccc(NC(=O)Nc5cccc(Cl)c5)c4F)nn3)cc12

IC50 [1]: 272 nM
IC50 [2]: 2.1 nM
Structure (SMILES): COc1n[nH]c2ncc(-c3cn(-c4c(F)ccc(NS(=O)(=O)c5cccc(Br)c5)c4F)nn3)cc12

IC50 [1]: 795 nM
IC50 [2]: 3 nM
Structure (SMILES): COc1n[nH]c2ncc(-c3cn(-c4cccc(NS(=O)(=O)c5cccc(Cl)c5)c4F)nn3)cc12

IC50 [1]: 470 nM
IC50 [2]: 3.3 nM
Structure (SMILES): COc1n[nH]c2ncc(-c3cn(-c4c(F)ccc(NS(=O)(=O)c5cccc(C#N)c5)c4F)nn3)cc12

IC50 [1]: 436 nM
IC50 [2]: 413 nM
Structure (SMILES): COc1n[nH]c2ncc(-c3cn(-c4c(Cl)ccc(NS(=O)(=O)c5cccc(Cl)c5)c4Cl)nn3)cc12
